# According to PMC11873635 (Acta Pharmaceutica Sinica. B, 2024):
# pEC50, pIC50: −log10 of the molar value. Where two headings read alike, the source gives them in different places.
# Tests used:
# human SMS2 = target: T1, human SMS2 (Homo sapiens, UniProt Q8NHU3); experiment: purified SMS enzyme inhibitory assay in vitro; format: biochemical
# T1 sequence (Q8NHU3 1-365): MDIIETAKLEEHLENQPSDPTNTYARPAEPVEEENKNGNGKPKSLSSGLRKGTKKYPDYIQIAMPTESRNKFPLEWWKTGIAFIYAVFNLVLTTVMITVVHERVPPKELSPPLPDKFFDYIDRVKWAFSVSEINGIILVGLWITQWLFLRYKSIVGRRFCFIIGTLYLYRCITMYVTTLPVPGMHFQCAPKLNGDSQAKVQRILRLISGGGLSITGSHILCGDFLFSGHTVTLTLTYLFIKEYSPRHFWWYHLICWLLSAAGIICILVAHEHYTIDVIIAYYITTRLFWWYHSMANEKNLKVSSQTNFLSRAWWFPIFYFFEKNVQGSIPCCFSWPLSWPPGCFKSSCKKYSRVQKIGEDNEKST
# human SMS1 = target: T2, human SMS1 (Homo sapiens, UniProt Q86VZ5); experiment: purified SMS enzyme inhibitory assay in vitro; format: biochemical
# T2 sequence (Q86VZ5 1-413): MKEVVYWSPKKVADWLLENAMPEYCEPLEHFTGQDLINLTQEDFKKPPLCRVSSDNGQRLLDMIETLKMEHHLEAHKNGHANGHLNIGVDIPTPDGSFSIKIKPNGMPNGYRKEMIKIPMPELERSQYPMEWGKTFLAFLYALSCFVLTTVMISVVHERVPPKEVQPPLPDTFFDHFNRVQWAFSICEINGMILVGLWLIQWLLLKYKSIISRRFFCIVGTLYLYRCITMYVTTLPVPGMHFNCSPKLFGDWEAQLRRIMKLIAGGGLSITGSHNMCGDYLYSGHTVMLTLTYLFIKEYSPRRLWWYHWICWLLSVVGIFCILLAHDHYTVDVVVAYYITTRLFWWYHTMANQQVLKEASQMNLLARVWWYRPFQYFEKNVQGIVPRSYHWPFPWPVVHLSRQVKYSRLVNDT
# [1] = tested on: human corneal epithelial cells (HCEC); experiment: Cell viability and toxicity assay; format: cell-based; settings: within 25 μmol/L; 48 h
# [2] = tested on: SM synthesis (SMS activity) in HCEC; experiment: Cellular SM synthesis inhibitory assay in HCEC; format: cell-based, human
# [3] = tested on: TNF-α protein expression in HCEC; experiment: Western blot of TNF-α protein expression in HCEC under hyperosmotic stress; format: cell-based, human; settings: 1 μmol/L; hyperosmotic 550 mOsm
# [4] = tested on: TNFR1-Caspase3 activation in HCEC; experiment: Western blot of TNFR1, caspase3 and cleaved-caspase3 in HCEC; format: cell-based, human; settings: 14l 1/3 and 1 μmol/L; TNF-α 10 ng/mL, 550 mOsm
# murine DED model [5] = experiment: Corneal fluorescein staining in murine DED model; format: in vivo, C57BL/6 mice; settings: DED mice; 14l low dose 0.001% twice a day for 7 days
# murine DED model [6] = experiment: Tear volume measurement; format: in vivo, C57BL/6 mice; settings: DED mice
# [7] = tested on: Tnf-α, Il-1β and Mmp-9 mRNA in mouse corneas; experiment: Quantitative PCR analysis of mouse corneas; format: in vivo, C57BL/6 mice; settings: DED mice, twice a day for 7 days
# [8] = tested on: lipid content of meibomian glands; experiment: LC-MS/MS lipidomic analysis of murine meibomian gland tissue; format: in vivo, C57BL/6 mice; settings: DED mice
# [9] = tested on: human corneal epithelial cells (HCEC); settings: 1 μmol/L; TNF-α (10 ng/mL), 550 mOsm; after incubation for 3 h
# [10] = tested on: human corneal epithelial cells (HCEC); settings: 14l 1/3 and 1 μmol/L, CsA 1 μmol/L; TNF-α 10 ng/mL, 550 mOsm, 5 h
# [11] = SD rats
# [12] = tested on: human corneal epithelial cells (HCEC); experiment: cells; settings: 24 h, read-out: EC50 of protective effect on HCEC viability
# in vivo = settings: male, SD, rat, topical or ocular, 16 ug
# [13] = 14l 0.001% and 0.025%, CsA 0.05%
# [14] = Conjunctiva, single drop 16 μg/eye
# [15] = Meibomian glands, single drop 16 μg/eye
compound,measurement,setting,value
"CCCCCCCCOc1ccccc1COc1ccsc1C(=O)Nc1cccnc1 [14l, 3-((2-(Octyloxy)benzyl)oxy)-N-(pyridin-3-yl)thiophene-2-carboxamide]",pIC50,human SMS2,7.55
same,Selectivity ratio,"human SMS2; IC50, SMS1/IC50, SMS2",589
same,LLE,"human SMS2; pIC50, SMS2 – ClogP",2.21
same,inhibition at 1 µM,human SMS2; read-out: SMS2 Inhibition @ 1 μmol/L (%),95%
same,pIC50,human SMS1,4.80
same,inhibition at 100 µM,human SMS1; read-out: SMS1 Inhibition @ 100 μmol/L (%),87%
same,HCEC viability (MTT),[1],less influence on the cell viability
same,effect on SMS activity of HCEC,[2]; 1 μmol/L,efficient SMS inhibitory activities
same,pEC50,"[2]; Homo sapiens, HCEC, 6 h, read-out: SM synthesis inhibitory EC50 in HCEC",6.52
same,EC50,"[2]; Homo sapiens, HCEC, read-out: SM synthesis inhibitory EC50 in HCEC",0.131 µg/mL
same,TNF-α protein expression,[3],inhibited TNF-α protein expression
same,TNF-α-induced TNFR1-Caspase3 activation,[4],effectively prevent TNF-α-induced TNFR1-Caspase3 activation
same,"corneal fluorescein scores, 14l low dose",murine DED model [5],higher than the two other treatment groups but lower than the DED control group
same,tear volume (Schirmer's test),"murine DED model [6]; 14l high dose 0.025% or CsA (Zirun®) 0.05%, twice a day for 7 days",improved significantly
same,"tear volume (Schirmer's test), 14l low dose",murine DED model [6]; 14l low dose 0.001% twice a day for 7 days,not in 14l low dose group
same,Mmp-9 mRNA expression in cornea,[7]; [13],decreased significantly in all treatment groups
same,Tnf-α mRNA expression in cornea,[7]; [13],decreased significantly in all treatment groups
same,Il-1β mRNA expression in cornea,[7]; 14l high dose 0.025% or CsA 0.05%,reduced only in 14l high dose group and CsA treatment group
same,levels of triglycerides (TG) and cholesterol esters (ChE) in meibomian glands,[8]; all treatment groups,not impacted in all treatment groups
same,proportion of very long chain SM species in meibomian glands,[8]; eye drops twice a day for 7 days,reduced the proportion of very long chain SM species
same,ceramide content in meibomian glands,[8]; high dosage of 14l (0.025%),did not induce an extreme increase and accumulation for ceramide
same,time-dependent protective effect in HCEC,[9],apparent and durative protective effect
same,HCEC population integrity and early apoptosis proportion,[10],a higher integrity of HCEC population and a less early apoptosis proportion
same,AUC0‒t,[11]; [14],489.73 ng·h/g
same,AUC0‒∞,[11]; [14],564.99 ng·h/g
same,AUC0‒t,"[11]; Cornea, single drop 16 μg/eye",4339.41 ng·h/g
same,AUC0‒∞,"[11]; Cornea, single drop 16 μg/eye",4567.46 ng·h/g
same,AUC0‒t,[11]; [15],14379.61 ng·h/g
same,AUC0‒∞,[11]; [15],14670.67 ng·h/g
same,adverse effect during the PK study,[11]; single drop 16 μg/eye,No adverse effect
same,detection in blood and retina,[11]; single drop 16 μg/eye,not detected in the blood and retina
same,ocular tissue distribution,[11]; single drop 16 μg/eye in 50% HP-β-CD,"distributed mainly in the meibomian glands, conjunctiva and cornea"
same,pEC50,[12],6.21
same,Cmax,in vivo; conjunctiva,358 ng/g
same,Tmax,in vivo; conjunctiva,0.25 h
same,half-life,in vivo; conjunctiva,1.3 h
same,Cmax,in vivo; cornea,3050 ng/g
same,Tmax,in vivo; cornea,1 h
same,half-life,in vivo; cornea,1.11 h
same,Cmax,in vivo; meibomian glands,2730 ng/g
same,Tmax,in vivo; meibomian glands,1 h
same,half-life,in vivo; meibomian glands,4.32 h
